Reference: PubChem BioAssay (NCI)
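Five compound concentrations were applied to cells in 96-well plates for 48 hours; endpoints were derived by simple linear interpolation of the resulting dose-response curve. The concentration for full growth arrest is given as TGI.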

Key:
Test in all cases: inhibition of tumour cell growth, NCI panel, 48 h
[1] = test system: KM12 colon
[2] = test system: SK-MEL-28 melanoma
[3] = test system: UO-31 renal
[4] = test system: LXFL 529 NSCLC
[5] = test system: OVCAR-3 ovarian
[6] = test system: HOP-92 NSCLC
[7] = test system: SK-MEL-2 melanoma
[8] = test system: A498 renal
[9] = test system: HOP-62 NSCLC
[10] = test system: OVCAR-5 ovarian
[11] = test system: SNB-19 CNS
[12] = test system: RPMI-8226 leukemia
[13] = test system: SN12C renal
[14] = test system: SR leukemia
[15] = test system: SNB-75 CNS
[16] = test system: HCT-116 colon
[17] = test system: OVCAR-8 ovarian
[18] = test system: HL-60(TB) leukemia
[19] = test system: KM20L2 colon
[20] = test system: SF-268 CNS
[21] = test system: DMS 114 small cell lung
[22] = test system: HCC-2998 colon
[23] = test system: NCI-H23 lung
[24] = test system: UACC-62 melanoma
[25] = test system: CCRF-CEM leukemia
[26] = test system: DLD-1 colon
[27] = test system: SF-539 CNS
[28] = test system: HOP-18 NSCLC
[29] = test system: M19-MEL melanoma
[30] = test system: SK-MEL-5 melanoma
[31] = test system: TK-10 renal
[32] = test system: NCI-H460 lung
[33] = test system: XF 498 CNS
[34] = test system: SNB-78 CNS
[35] = test system: OVCAR-4 ovarian
[36] = test system: CAKI-1 renal
[37] = test system: EKVX NSCLC
[38] = test system: SK-OV-3 ovarian
[39] = test system: M14 melanoma
[40] = test system: RXF 393 renal
[41] = test system: U251 CNS
[42] = test system: IGROV1 ovarian
[43] = test system: K-562 leukemia
[44] = test system: SW-620 colon
[45] = test system: SF-295 CNS
[46] = test system: NCI-H522 lung
[47] = test system: ACHN renal
[48] = test system: A549 NSCLC
[49] = test system: UACC-257 melanoma
[50] = test system: MOLT-4 leukemia
[51] = test system: DMS 273 small cell lung
[52] = test system: NCI-H226 lung
[53] = test system: HCT-15 colon
[54] = test system: LOX IMVI melanoma
[55] = test system: HT29 colon
[56] = test system: 786-0 renal
[57] = test system: MALME-3M melanoma

Measured: TGI

COC(=O)C(/C(=N/NC(N)=O)C(=O)Nc1c(C)cccc1C(C)(C)C)c1nc2ccc(Cl)cc2[nH]c1=O (configuration not stated)
> 100 µM: [1] | [2] | [3] | [4] | [5] | [6] | [7] | [8] | [9] | [10] | [11] | [12] | [13] | [14] | [15] | [16] | [17] | [18] | [19] | [20] | [21] | [22] | [23] | [24] | [25] | [26] | [27] | [28] | [29] | [30] | [31] | [32] | [33] | [34] | [35] | [36] | [37] | [38] | [39] | [40] | [41] | [42] | [43] | [44] | [45] | [46] | [47] | [48] | [49] | [50] | [51] | [52] | [53] | [54] | [55] | [56] | [57]
